Source: publication PMC7614775 (Nature chemical biology, 2022)
“Also recorded” adds a separate entry of the source. Read-outs that look alike come from different tables or passages of the source.

Tests used:
[1] = tested on: IL-6-stimulated STAT3 phosphorylation; test: Phospho-STAT western blot in 22Rv1 cells expressing JAK1 variants; assay type: cell-based, human
JAK1_C817 [2] = molecular target: T1, JAK1_C817 (Homo sapiens, UniProt P23458); test: Untargeted cysteine MS-ABPP, human PBMC lysates treated in vitro; assay type: binding; conditions: PBMC lysate in vitro, 1 h
[3] = tested on: αCD3/αCD28-stimulated primary human T cells (CD25, CD69); test: T-cell activation analysis by flow cytometry; assay type: cell-based; conditions: 24 h
TYK2_C838 = TYK2_C838 (Homo sapiens, UniProt P29597); test: Untargeted cysteine MS-ABPP, human PBMCs treated in situ; assay type: binding
[4] = tested on: IFNα-dependent STAT1 phosphorylation; test: Phospho-STAT western blot in mouse splenocytes; assay type: cell-based; conditions: 0.01–0.1 µM
[5] = tested on: IL-6-stimulated STAT3 phosphorylation; test: Phospho-STAT western blot in mouse splenocytes; assay type: cell-based
[6] = tested on: IL-2-stimulated STAT5 phosphorylation; test: Phospho-STAT western blot in human PBMCs; assay type: cell-based; conditions: 0.1–1 µM
[7] = tested on: IFNα-stimulated STAT1 phosphorylation; test: Phospho-STAT western blot in human PBMCs; assay type: cell-based; conditions: 0.1 µM
TOR4A_C21 [8] = molecular target: T2, TOR4A_C21 (Homo sapiens, UniProt Q9NXH8); test: Untargeted cysteine MS-ABPP, human PBMC lysates treated in vitro; assay type: binding; conditions: PBMC lysate in vitro, 1 h
TOR4A_C21 [9] = molecular target: T2, TOR4A_C21; test: Untargeted cysteine MS-ABPP, human PBMCs treated in situ; assay type: binding
[10] = tested on: αCD3/αCD28-stimulated primary human T cells (IFNγ, IL-2 secretion); test: Cytokine secretion of activated T cells (ELISA); assay type: cell-based; conditions: αCD3/αCD28 co-stimulation, 24 h
SLC66A3_C135 = molecular target: T3, SLC66A3_C135 (Homo sapiens, UniProt Q8N755); test: Untargeted cysteine MS-ABPP, human PBMCs treated in situ; assay type: binding
T3 sequence (Q8N755 20-202): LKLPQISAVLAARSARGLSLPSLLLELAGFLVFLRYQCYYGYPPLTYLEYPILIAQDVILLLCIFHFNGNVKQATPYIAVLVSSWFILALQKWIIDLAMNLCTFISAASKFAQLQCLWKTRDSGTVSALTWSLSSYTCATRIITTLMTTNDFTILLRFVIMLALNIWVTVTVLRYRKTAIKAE

HMOX2_C282 = molecular target: T4, HMOX2_C282 (Homo sapiens, UniProt P30519); test: as above; assay type: binding
T4 sequence (P30519 1-316): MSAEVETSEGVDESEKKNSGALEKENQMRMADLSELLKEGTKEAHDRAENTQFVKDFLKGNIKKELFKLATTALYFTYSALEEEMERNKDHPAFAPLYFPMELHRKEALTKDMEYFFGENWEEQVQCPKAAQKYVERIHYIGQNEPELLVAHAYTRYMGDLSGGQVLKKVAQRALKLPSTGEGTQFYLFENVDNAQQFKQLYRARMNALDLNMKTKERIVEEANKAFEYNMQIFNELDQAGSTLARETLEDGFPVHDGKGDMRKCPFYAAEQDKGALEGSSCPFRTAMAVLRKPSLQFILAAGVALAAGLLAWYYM

[11] = tested on: IL-6-stimulated STAT3 phosphorylation; test: Phospho-STAT western blot in human PBMCs; assay type: cell-based; conditions: 0.1 µM
IL-12-STAT4 signaling = test: Phospho-STAT western blot in mouse splenocytes; assay type: cell-based
[12] = molecular target: recombinant purified JAK1 (aa 438 – 1154) (Homo sapiens, UniProt P23458); test: In vitro kinase (peptide substrate, ADP-Glo) assay; assay type: biochemical
[13] = tested on: IFNα-stimulated STAT1 phosphorylation; test: HTRF phospho-STAT1 assay in human PBMCs; assay type: cell-based; conditions: read-out: IC50, IFNα-stimulated STAT1 phosphorylation (HTRF)
[14] = tested on: GM-CSF stimulated STAT5 phosphorylation (JAK2-dependent); test: Phospho-STAT western blot in human PBMCs; assay type: cell-based; conditions: compound 2 h, GM-CSF 15 min
[15] = tested on: prolactin (PRL)-stimulated STAT5 (JAK2-dependent) phosphorylation; test: Phospho-STAT western blot in 22Rv1 cells expressing JAK1 variants; assay type: cell-based, human; conditions: 2 µM, 2 h
[16] = tested on: IFNα-stimulated human PBMCs; test: Multiplex immunoassay of cytokines/chemokines; assay type: cell-based; conditions: compound 2 h, then IFNα 100 ng/mL, 16 h
[17] = molecular target: JAK1 trans-phosphorylation (Homo sapiens, UniProt P23458); test: Trans-phosphorylation assay in 22Rv1 cells; assay type: cell-based; conditions: cells expressing active WT-JAK1-FLAG; 2 µM, 2 h
JAK1_C817 [18] = molecular target: T1, JAK1_C817; test: Untargeted cysteine MS-ABPP, human PBMCs treated in situ; assay type: binding

TYK2_C838, sequence (P29597 whole entry): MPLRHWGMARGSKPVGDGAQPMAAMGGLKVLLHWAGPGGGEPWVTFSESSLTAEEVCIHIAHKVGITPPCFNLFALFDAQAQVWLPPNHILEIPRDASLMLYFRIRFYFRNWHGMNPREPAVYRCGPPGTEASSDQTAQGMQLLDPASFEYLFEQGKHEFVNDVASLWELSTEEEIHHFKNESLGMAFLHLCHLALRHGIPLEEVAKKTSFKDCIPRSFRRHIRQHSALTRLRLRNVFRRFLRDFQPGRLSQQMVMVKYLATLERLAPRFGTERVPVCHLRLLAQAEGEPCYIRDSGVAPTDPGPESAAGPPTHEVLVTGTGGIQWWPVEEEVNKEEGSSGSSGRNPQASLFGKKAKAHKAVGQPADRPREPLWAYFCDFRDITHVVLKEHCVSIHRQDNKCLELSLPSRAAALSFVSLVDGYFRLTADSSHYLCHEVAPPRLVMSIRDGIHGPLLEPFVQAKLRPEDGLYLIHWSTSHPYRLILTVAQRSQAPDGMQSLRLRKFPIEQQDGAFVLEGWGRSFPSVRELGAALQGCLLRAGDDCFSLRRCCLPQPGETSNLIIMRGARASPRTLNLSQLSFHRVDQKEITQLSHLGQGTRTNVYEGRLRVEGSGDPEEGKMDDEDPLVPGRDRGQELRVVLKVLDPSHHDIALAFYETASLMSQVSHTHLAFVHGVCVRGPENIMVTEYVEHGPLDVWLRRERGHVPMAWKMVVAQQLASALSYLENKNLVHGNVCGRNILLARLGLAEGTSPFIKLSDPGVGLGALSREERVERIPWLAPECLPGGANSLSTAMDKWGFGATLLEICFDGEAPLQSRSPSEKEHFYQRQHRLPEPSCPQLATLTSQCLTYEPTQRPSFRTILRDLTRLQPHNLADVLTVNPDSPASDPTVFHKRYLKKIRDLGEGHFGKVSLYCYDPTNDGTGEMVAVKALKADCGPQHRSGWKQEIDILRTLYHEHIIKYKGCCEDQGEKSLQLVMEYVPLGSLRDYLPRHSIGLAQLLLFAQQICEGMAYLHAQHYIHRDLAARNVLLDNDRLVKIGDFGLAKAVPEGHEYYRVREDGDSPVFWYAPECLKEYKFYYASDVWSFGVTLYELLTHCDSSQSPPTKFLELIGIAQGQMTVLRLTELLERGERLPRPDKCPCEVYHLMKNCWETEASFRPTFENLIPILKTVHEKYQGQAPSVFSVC
T1 sequence (P23458 whole entry): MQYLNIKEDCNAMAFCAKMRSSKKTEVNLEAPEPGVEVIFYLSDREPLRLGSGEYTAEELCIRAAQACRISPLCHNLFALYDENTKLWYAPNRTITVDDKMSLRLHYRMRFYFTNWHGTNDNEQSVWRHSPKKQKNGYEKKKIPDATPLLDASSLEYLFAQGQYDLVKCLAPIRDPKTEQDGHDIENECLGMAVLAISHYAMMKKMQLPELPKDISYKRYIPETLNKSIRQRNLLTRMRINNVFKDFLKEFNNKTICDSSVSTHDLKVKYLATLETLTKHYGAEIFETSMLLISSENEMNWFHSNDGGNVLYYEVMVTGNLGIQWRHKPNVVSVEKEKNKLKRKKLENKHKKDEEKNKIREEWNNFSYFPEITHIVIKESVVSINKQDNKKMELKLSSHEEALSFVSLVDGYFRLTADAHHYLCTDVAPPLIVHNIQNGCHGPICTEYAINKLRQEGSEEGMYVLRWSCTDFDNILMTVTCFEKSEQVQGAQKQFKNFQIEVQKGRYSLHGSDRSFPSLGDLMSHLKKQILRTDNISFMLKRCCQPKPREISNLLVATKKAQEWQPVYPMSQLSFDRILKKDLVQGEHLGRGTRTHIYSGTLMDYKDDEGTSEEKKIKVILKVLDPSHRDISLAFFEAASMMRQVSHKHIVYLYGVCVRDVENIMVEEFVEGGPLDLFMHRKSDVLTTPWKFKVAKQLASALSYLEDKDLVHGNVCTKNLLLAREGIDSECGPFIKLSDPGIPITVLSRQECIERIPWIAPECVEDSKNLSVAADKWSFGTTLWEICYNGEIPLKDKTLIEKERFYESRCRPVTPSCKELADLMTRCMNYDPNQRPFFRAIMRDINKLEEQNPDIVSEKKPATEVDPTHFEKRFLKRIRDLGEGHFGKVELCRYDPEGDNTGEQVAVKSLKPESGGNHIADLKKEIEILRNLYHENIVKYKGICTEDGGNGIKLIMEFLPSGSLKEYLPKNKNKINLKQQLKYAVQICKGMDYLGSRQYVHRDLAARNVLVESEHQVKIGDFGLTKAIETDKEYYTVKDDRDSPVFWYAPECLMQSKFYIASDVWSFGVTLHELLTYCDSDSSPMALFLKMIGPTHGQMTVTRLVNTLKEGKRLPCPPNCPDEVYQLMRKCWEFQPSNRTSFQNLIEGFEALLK
T2 sequence (Q9NXH8 whole entry): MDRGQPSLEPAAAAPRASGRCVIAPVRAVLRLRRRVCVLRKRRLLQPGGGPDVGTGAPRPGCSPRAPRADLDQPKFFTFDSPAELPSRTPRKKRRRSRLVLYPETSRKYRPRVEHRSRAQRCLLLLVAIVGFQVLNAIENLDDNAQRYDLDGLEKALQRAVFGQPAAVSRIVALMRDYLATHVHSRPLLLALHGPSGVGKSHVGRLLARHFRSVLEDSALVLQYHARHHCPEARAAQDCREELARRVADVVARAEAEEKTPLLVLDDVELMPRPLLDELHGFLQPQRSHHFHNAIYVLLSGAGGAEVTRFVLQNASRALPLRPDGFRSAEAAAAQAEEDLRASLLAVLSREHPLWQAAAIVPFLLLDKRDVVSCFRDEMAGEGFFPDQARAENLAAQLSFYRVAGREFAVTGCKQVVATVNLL
recombinant purified JAK1 (aa 438 – 1154), sequence (P23458 438-1154): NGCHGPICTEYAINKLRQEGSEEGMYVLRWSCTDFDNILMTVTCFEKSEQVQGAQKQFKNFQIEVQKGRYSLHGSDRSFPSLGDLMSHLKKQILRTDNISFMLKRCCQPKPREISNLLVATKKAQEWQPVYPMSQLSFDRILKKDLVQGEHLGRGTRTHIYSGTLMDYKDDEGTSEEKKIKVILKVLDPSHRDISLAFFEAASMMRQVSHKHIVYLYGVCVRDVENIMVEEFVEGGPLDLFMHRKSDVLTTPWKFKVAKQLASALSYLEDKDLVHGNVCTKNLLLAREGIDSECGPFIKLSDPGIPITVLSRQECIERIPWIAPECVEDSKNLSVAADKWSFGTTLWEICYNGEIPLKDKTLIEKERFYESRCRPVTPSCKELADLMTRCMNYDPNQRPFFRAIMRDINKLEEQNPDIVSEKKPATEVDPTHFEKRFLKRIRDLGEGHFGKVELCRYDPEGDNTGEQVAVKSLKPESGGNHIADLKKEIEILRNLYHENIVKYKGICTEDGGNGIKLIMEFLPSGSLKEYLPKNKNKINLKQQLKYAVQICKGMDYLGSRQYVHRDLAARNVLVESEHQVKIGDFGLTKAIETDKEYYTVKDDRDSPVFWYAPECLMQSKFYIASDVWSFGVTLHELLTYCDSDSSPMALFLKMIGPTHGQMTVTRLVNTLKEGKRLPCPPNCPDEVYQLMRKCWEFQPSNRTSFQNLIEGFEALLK
JAK1 trans-phosphorylation, sequence (P23458 whole entry): as the sequence (P23458 whole entry) above

- %Engagement (JAK1_C817 [2]; 0.01 µM): 81%
- Engagement Ratio (DMSO/VVD-118313) (JAK1_C817 [2]; 0.01 µM): 5.1
- %Engagement (JAK1_C817 [2]; 0.1 µM): 96%
- Engagement Ratio (DMSO/VVD-118313) (JAK1_C817 [2]; 0.1 µM): 20.0
- %Engagement (JAK1_C817 [2]; 1 µM): 97%
- Engagement Ratio (DMSO/VVD-118313) (JAK1_C817 [2]; 1 µM): 20.0
- %Engagement (JAK1_C817 [2]; 10 µM): 98%
- Engagement Ratio (DMSO/VVD-118313) (JAK1_C817 [2]; 10 µM): 20.0
- %Engagement (TYK2_C838; 0.01 µM): 9%
- Engagement Ratio (DMSO/VVD-118313) (TYK2_C838; 0.01 µM): 1.1
- Engagement Ratio (DMSO/VVD-118313) (TYK2_C838; 0.1 µM): 5.4
- %Engagement (TYK2_C838; 1 µM): 92%
- Engagement Ratio (DMSO/VVD-118313) (TYK2_C838; 1 µM): 12.5
- %Engagement (TYK2_C838; 10 µM): 95%
- Engagement Ratio (DMSO/VVD-118313) (TYK2_C838; 10 µM): 18.2
- %Engagement (TOR4A_C21 [8]; 0.01 µM): 9%
- Engagement Ratio (DMSO/VVD-118313) (TOR4A_C21 [8]; 0.01 µM): 1.1
- %Engagement (TOR4A_C21 [8]; 0.1 µM): 49%
- Engagement Ratio (DMSO/VVD-118313) (TOR4A_C21 [8]; 0.1 µM): 1.9
- %Engagement (TOR4A_C21 [8]; 1 µM): 90%
- Engagement Ratio (DMSO/VVD-118313) (TOR4A_C21 [8]; 1 µM): 10.0
- %Engagement (TOR4A_C21 [8]; 10 µM): 97%
- Engagement Ratio (DMSO/VVD-118313) (TOR4A_C21 [8]; 10 µM): 20.0
- Engagement Ratio (DMSO/VVD-118313) (TOR4A_C21 [9]; 0.01 µM): 0.9
- Engagement Ratio (DMSO/VVD-118313) (TOR4A_C21 [9]; 0.1 µM): 1.0
- %Engagement (TOR4A_C21 [9]; 1 µM): 65%
- Engagement Ratio (DMSO/VVD-118313) (TOR4A_C21 [9]; 1 µM): 2.9
- %Engagement (TOR4A_C21 [9]; 10 µM): 92%
- Engagement Ratio (DMSO/VVD-118313) (TOR4A_C21 [9]; 10 µM): 11.8
- Engagement Ratio (DMSO/VVD-118313) (SLC66A3_C135; 0.01 µM): 1.0
- %Engagement (SLC66A3_C135; 0.1 µM): 12%
- Engagement Ratio (DMSO/VVD-118313) (SLC66A3_C135; 0.1 µM): 1.1
- Engagement Ratio (DMSO/VVD-118313) (SLC66A3_C135; 1 µM): 4.4
- %Engagement (SLC66A3_C135; 10 µM): 99%
- Engagement Ratio (DMSO/VVD-118313) (SLC66A3_C135; 10 µM): 20.0
- Engagement Ratio (DMSO/VVD-118313) (HMOX2_C282; 0.01 µM): 1.0
- %Engagement (HMOX2_C282; 0.1 µM): 27%
- Engagement Ratio (DMSO/VVD-118313) (HMOX2_C282; 0.1 µM): 1.4
- %Engagement (HMOX2_C282; 1 µM): engaged
- Engagement Ratio (DMSO/VVD-118313) (HMOX2_C282; 1 µM): 12.5
- %Engagement (HMOX2_C282; 10 µM): 98%
- Engagement Ratio (DMSO/VVD-118313) (HMOX2_C282; 10 µM): 20.0
- effect on catalytic activity of recombinant purified JAK1 ([12]; peptide substrate assay): did not inhibit
- IC50 ([12]; read-out: IC50, JAK1 substrate assay, 30 min preincubation, IRS-1 peptide, ATP 50 µM, 1 h): > 50 µM
- IC50 ([13]; media supplemented with 10% fetal bovine serum (FBS)): 46 nM
- IC50 ([13]; serum-free media): 32 nM
- effect on trans-phosphorylation of inactive JAK1-HA variants [17]: completely blocked
- %Engagement (JAK1_C817 [18]; 0.01 µM): 84%
- Engagement Ratio (DMSO/VVD-118313) (JAK1_C817 [18]; 0.01 µM): 6.3
- Engagement Ratio (DMSO/VVD-118313) (JAK1_C817 [18]; 0.1 µM): 20.0
- %Engagement (JAK1_C817 [18]; 1 µM): 96%
- Engagement Ratio (DMSO/VVD-118313) (JAK1_C817 [18]; 1 µM): 20.0
- %Engagement (JAK1_C817 [18]; 10 µM): 97%
- Engagement Ratio (DMSO/VVD-118313) (JAK1_C817 [18]; 10 µM): 20.0
Compound: CS(=O)(=O)N1CC[C@H](C#CC(=O)N2CCC[C@@H](c3ccc(Cl)c(Cl)c3)C2)C1 [VVD-118313]
- inhibition of IL-6-STAT3 phosphorylation ([1]; C817A-JAK1-expressing 22Rv1 cells, up to 2 µM): < 10%
- effect on IL-6-stimulated pSTAT3 ([1]; WT- or C810A-JAK1-expressing 22Rv1 cells, 2 µM, 2 h): blocked
- maximal inhibition of IL-6-STAT3 phosphorylation ([1]; WT- or C810A-JAK1-expressing 22Rv1 cells, at ~0.2 µM): > 80%
- CD25+ (% of live cells) ([3]; 0.4 μM, representative flow cytometry plot): 83%
- T-cell activation (proportion of CD25+ T-cells) ([3]; αCD3/αCD28 co-stimulation): partially inhibited
- early-stage activation marker CD69 ([3]; αCD3/αCD28 co-stimulation): Neither compound affected
- effect on IFNα-dependent STAT1 phosphorylation [4]: inhibited
- effect on IL-6-dependent STAT3 phosphorylation ([5]; Tyk2−/− splenocytes): fully blocked
- effect on IL-6-stimulated STAT3 phosphorylation ([5]; WT mouse splenocytes): did not inhibit
- inhibition of IL-2-stimulated STAT5 phosphorylation [6]: ~ 70%
- inhibition of IFNα-stimulated STAT1 phosphorylation [7]: > 85%
- production of IL-2 [10]: slightly increased
- secretion of IFNγ [10]: partially blocked
- inhibition of IL-6-stimulated STAT3 phosphorylation [11]: > 85%
- effect on IL-12-STAT4 signaling (IL-12-STAT4 signaling): sparing
- effect on GM-CSF stimulated STAT5 phosphorylation [14]: no effect; also recorded: modest inhibitory effects
- effect on PRL-induced STAT5 phosphorylation [15]: inactive
- induction of pro-inflammatory chemokines (CCL2/MCP-1, CXCL10/IP-10, CCL4/MIP-1β) [16]: near-completely suppressed
